Assay results published in paper PMC12297304, “Molecular networking derived from untargeted LC-MS/MS analysis to discover inhibitors of RANKL-induced osteoclastogenesis from Egyptian marine sponge-associated fungi” (Scientific Reports, 2025).
Entries after “also recorded” stand apart in the source; their conditions may differ.

Experiments:
[1] = test system: RANKL-induced formation of MNCs from RAW264 macrophages; assay: Multinucleated TRAP+ve osteoclast (MNCs) counting assay; assay type: cell-based, murine; conditions: Mus musculus, RAW264.7, 96 h; RAW264 cells, RANKL 50 ng/mL, 4 days; read-out: IC50, inhibition of RANKL-induced formation of multinucleated osteoclasts (MNCs)
Procedure: EtOAc fractions of all fungal CH3OH extracts were tested for their ability to inhibit TRAP activity and the formation of multinucleated osteoclasts (MNCs) in RANKL-treated RAW264 macrophages as previously reported[7],[24]. Briefly, RAW264 cells (RIKEN Cell Bank, Tsukuba) were cultured in MEMα medium supplemented with 10% heat-inactivated fetal bovine serum and 1% penicillin/streptomycin and incubated at 37 °C in a 5% CO2 humidified atmosphere in two 96-well plates at a density of 1000 and 6000 cells/well, for TRAP assay and MNCs staining assay, respectively. Samples were then added at a concentration of 50 and 20 µg/mL for extracts, 50, 20, and 10 µM for pure compounds, and 83 µM for the standard quercetin. […]
Following a 4-day incubation period, the differentiated cells were fixed with 4% paraformaldehyde solution (Sigma–Aldrich, USA), washed with PBS, and stained using a TRAP-staining solution, which consisted of 50 mM sodium tartrate, 45 mM sodium acetate, 0.1 mg/mL naphthol AS-MX phosphate (Sigma– Aldrich, USA), and 0.6 mg/mL fast red violet LB salt (Sigma–Aldrich, USA), pH 5.2, for 1 h or longer at room temperature. TRAP-positive cells, that stained red and contained 3 or more nuclei were determined to be multinuclear osteoclasts and were quantified in each well by counting MNCs in 8 fields/well using a light microscope.

RAW264 macrophages = assay: MTT cytotoxicity assay; assay type: cell-based, murine; conditions: at the highest tested concentration
Procedure: After incubation of cells for one day, media was aspired and replaced with new one supplemented with treatments, whereas controls contained only DMSO. Cells were then kept at 37 °C for three days. Finally, 50 µL of 3-(4,5-dimethylthiazol-2-yl)−2,[…] bromide (MTT) solution (150 µg/mL in medium) was added after aspiration of medium, incubated under the same conditions for 3 h. Then 200 µL of DMSO were added to each well, after removal of the reaction solution, to dissolve the formed formazan salt crystals, and optical density was measured at 570 nm with a microplate reader.

| SMILES | IC50 [1] [µM] | Toxic effect against RAW264 macrophages (RAW264 macrophages) |
| --- | --- | --- |
| COc1cc(O)c2c(c1)C1=CC(O)C(O)CC1(C)OC2=O (stereo not shown) [Compound 8, altenuene] | 38.4 | without cytotoxicity; also recorded: no toxic effect |
| COCC(O)COc1ccc(C(C)(C)c2ccc(OCC(O)COC)cc2)cc1 (stereo not shown) [Compound 1, 2,2-bis‐[4‐(2‐hydroxy-3-methoxy-propoxy)phenyl]propane] | 57.1 | without cytotoxicity; also recorded: no toxic effect |
